Measurements taken from paper PMC10460728 (Journal of Pharmacokinetics and Pharmacodynamics, 2023).
Each block holds one molecule with its values, some of them ahead of it.

Tests used:
[1] = system: CYP3A and P-gp; parameters: method as in PMID 33030266; details: assumed in model development, verified with clinical DDI studies; cited from earlier work
[2] = system: P-gp and CYP3A; details: rivaroxaban; cited from earlier work
[3] = PBPK models of enzalutamide and M2 (Simcyp)
From the text: Many of the physicochemical properties and plasma protein binding data were obtained internally and also referenced from FDA documents, which are available from the FDA website. […] Accordingly, the solution formulation option in the Simcyp model was used.
The PBPK models of CYP2C8 inhibitor (gemfibrozil), CYP3A4 substrate (midazolam), and P-gp substrate (digoxin) were used from the Simcyp software library with models that were verified for their intended purpose.

[4] = clinical; details: human, plasma, po, 160 mg; for Cmax: observed, mean
[5] = system: CYP3A4; details: calibrated with positive control rifampicin; Simcyp input
Experimental: (§1) Hepatocytes were cultured according to previously described methods [8]. […] Single-stranded cDNA was prepared from RNA with the RT Master Mix using the AB 7900HT Fast Real Time PCR System thermocycling program. Quantitative RT-PCR was carried out in triplicate. Relative quantification measures the change in mRNA expression in a test sample relative to that in a control sample (e.g., DMSO). This method assumes that the efficiency of the target amplification and the efficiency of the endogenous control amplification are approximately equal.
(§2) The maximal fold induction (Indmax) and half concentration to reach Indmax (IndC50) were determined based on the following equation: Foldinduction=1+Indmax-1×Ct/IndC50+Ct where Ct is the test drug concentration.

[6] = target: P-gp (human MDR1) (Homo sapiens, UniProt P08183); assay: In vitro P-gp inhibition: 3H-digoxin permeation across control and MDR1-expressing LLC-PK1 cell monolayers
Chain of P-gp (human MDR1) (P08183 whole entry): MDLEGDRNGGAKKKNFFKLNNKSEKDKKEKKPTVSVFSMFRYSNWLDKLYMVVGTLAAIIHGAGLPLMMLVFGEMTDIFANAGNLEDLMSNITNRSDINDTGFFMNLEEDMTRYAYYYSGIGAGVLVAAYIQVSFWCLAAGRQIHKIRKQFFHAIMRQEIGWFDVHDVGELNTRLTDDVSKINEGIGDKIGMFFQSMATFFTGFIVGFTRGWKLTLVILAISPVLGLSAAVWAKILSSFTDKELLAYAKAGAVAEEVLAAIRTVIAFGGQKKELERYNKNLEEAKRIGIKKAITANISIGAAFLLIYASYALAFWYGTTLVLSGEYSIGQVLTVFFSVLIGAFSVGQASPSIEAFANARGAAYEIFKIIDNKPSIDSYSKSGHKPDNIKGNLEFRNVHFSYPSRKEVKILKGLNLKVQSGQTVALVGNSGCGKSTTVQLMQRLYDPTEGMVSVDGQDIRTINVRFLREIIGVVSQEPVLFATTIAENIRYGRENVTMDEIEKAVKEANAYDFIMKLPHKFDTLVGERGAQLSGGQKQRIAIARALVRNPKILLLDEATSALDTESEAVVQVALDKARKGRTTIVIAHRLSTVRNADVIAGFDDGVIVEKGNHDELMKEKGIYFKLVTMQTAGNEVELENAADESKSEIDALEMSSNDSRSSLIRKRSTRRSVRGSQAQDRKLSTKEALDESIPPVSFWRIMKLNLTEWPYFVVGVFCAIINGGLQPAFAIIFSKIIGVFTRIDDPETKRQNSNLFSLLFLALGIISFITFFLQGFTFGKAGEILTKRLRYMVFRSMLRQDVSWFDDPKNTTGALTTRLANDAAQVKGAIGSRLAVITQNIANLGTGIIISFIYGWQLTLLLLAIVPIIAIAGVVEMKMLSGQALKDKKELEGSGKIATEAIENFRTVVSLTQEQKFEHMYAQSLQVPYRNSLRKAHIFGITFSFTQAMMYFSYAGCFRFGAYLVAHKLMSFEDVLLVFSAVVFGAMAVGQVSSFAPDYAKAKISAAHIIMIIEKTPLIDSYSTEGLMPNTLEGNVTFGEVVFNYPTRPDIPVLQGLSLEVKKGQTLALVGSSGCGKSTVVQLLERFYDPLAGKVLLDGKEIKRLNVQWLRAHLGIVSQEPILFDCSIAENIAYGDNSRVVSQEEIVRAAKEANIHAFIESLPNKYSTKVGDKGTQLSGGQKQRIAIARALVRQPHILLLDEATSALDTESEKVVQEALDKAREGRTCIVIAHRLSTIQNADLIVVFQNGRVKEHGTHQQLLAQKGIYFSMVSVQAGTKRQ
Experimental: MDR1-expressing cells (porcine kidney epithelial LLC-PK1 cells transfected with human MDR1 cDNA) was used. The MDR1-expressing cells were seeded at a density of 4 × 10^4 cells/insert in plates and were incubated in a CO2 incubator (37 °C, CO2: 5%) for 7 to 9 days to prepare cell monolayers. […] After incubation for 4 h at 37 °C, a 70-μL aliquot of the incubation solutions was collected as the analytical sample from the opposite compartment of that spiked with test solutions (receiver compartment). The collected samples were immediately combined with 10 mL of scintillator, and the radioactivity was counted using the LSC. Permeability coefficient (Papp) of ^3H-digoxin was calculated using the following equation: Pappcm/sec=[dQ/dt]/A/C0 where dQ/dt is the transport rate (dpm/sec); A is the membrane area (cm^2); C0 is the initial concentration (dpm/mL). The ratio of permeability coefficient (Papp ratio) was calculated from the basal to apical Papp and apical to basal Papp according to the following equation: Pappratio=BasaltoapicalPapp/ApicaltobasalPapp
Furthermore, the ratios of the Papp ratios in MDR1-expressing cells to the Papp ratios in control cells were calculated as corrected Papp ratio according to the following equation: CorrectedPappratio=PappratiooftheMDR1expressingcells/Pappratioofthecontrolcells
The % of control was calculated from the corrected Papp ratio according to the following equation: \% \,of\,control=CorrectedPappratio\,in\,the\,absence\,or\,presence\,of\,inhibitors/CorrectedPappratio\,in\,the\,absence\,of\,inhibitors×100

[7] = cited from earlier work
[8] = Caco-2 passive permeability; assay type: in vitro ADME; details: human, Caco-2, pH 6.5; internal data; read-out: Papp Caco-2 passive permeability (pH6.5:7.5)
From the text: Many of the physicochemical properties and plasma protein binding data were obtained internally and also referenced from FDA documents [9], which are available from the FDA website.

[9] = once-daily oral 160 mg enzalutamide for 49 days; mean
[10] = plasma; ref FDA CP review; cited from earlier work
[11] = system: CYP3A4; assay: in vitro; details: human, freshly isolated, cultured human hepatocytes
Experimental: as §1, §2

[12] = target: T1, OAT3 (Homo sapiens, UniProt Q8TCC7); assay: In vitro OAT3 inhibition (internal data); assay type: cell-based
T1 sequence (Q8TCC7 1-542): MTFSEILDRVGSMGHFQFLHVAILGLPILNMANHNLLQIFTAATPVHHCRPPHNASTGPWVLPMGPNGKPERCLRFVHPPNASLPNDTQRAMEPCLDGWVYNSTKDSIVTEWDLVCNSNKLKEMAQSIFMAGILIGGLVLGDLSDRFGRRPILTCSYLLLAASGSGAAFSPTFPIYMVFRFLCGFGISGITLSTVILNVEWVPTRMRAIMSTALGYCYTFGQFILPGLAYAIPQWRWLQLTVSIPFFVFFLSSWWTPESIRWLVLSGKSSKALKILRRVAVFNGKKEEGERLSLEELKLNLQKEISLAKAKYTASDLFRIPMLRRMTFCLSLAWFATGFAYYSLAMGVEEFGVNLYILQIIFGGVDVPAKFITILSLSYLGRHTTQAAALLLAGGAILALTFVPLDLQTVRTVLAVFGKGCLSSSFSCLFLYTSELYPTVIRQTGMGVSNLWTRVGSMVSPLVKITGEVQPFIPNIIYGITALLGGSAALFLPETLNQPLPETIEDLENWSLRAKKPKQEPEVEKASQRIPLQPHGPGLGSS

[13] = parameters: method as in FDA CP review; details: ref FDA CP review; cited from earlier work
[14] = target: CYP3A4 (Homo sapiens, UniProt P08684); assay: In vitro CYP3A4 inhibition (internal data); assay type: biochemical
Chain of CYP3A4 (Homo sapiens, UniProt P08684) (P08684 whole entry): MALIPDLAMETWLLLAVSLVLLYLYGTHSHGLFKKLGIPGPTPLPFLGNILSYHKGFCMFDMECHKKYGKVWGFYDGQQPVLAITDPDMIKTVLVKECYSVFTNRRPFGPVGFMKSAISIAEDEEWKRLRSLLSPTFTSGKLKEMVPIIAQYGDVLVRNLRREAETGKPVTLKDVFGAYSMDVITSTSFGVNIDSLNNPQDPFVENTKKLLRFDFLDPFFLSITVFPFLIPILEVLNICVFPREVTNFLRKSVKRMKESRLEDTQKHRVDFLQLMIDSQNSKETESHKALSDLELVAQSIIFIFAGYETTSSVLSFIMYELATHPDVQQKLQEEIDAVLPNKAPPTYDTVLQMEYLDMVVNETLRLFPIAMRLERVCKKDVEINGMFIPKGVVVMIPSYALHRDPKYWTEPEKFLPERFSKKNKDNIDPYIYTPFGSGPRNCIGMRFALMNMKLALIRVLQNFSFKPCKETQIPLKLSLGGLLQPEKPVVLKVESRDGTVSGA

[15] = target: CYP3A5 (Homo sapiens, UniProt P20815); assay: In vitro CYP3A5 inhibition (internal data); assay type: biochemical
Chain of CYP3A5 (P20815 whole entry): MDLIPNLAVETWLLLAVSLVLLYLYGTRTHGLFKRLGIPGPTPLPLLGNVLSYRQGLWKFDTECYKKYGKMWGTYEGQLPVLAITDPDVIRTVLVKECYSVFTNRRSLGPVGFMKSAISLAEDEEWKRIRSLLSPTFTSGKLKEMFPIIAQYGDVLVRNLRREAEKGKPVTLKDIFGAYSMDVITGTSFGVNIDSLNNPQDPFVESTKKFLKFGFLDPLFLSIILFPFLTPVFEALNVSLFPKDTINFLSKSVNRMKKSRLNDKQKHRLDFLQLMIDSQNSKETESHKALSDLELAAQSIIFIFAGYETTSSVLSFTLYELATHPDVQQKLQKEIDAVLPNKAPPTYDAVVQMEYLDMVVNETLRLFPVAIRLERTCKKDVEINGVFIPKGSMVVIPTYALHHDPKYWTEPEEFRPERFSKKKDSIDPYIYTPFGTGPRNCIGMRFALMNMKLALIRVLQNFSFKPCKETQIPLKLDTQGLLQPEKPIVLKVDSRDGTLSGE

[16] = system: CYP1A2; details: human, hepatocytes, 50 µmol/L
Experimental: as §1, §2

[17] = system: P-gp; assay: P-gp mRNA induction in cultured human hepatocytes; assay type: cell-based; details: 50 µmol/L
[18] = retrograde calculation from CLpo 0.60 L/h

Compound: O=C(NC[C@H]1CN(c2ccc(N3CCOCC3=O)cc2)C(=O)O1)c1ccc(Cl)s1 [Rivaroxaban, rivaroxaban]
- Contribution of CYP3A to hepatic metabolism [1]: 61%
- Decrease in AUC by rifampicin [2]: 49%

- CYP3A4 CLint for M2 formation ([3]; PBPK model parameter, see text): 0.002312 mL/min/pmol enzyme
- Peff,man ([3]; calculated from Caco-2 passive permeability calibrated to propranolol): 5.15 10^–4 cm/s
- Contribution of CYP2C8 on enzalutamide elimination ([3]; estimated from clinical DDI study with gemfibrozil): 87%
- CYP2C8 CLint for M2 formation [3, 18]: 0.1518 mL/min/pmol enzyme
- CYP2C8 CLint for other pathway [3, 18]: 0.07475 mL/min/pmol enzyme
- CYP3A4 CLint for other pathway [3, 18]: 0.003617 mL/min/pmol enzyme
- AUC [4]: 322 µg·h/mL
- AUC(0-inf) [4]: 288 µg·h/mL
- Tmax [4]: 0.75 h
- half-life [4]: 77.7 h
- Cmax ([4]; once-daily oral 160 mg enzalutamide for 49 days): 16600 ng/mL
- Cmax ([4]; single oral 160 mg enzalutamide): 5660 ng/mL
- Indmax on CYP3A4, calibrated [5]: 11.43
- IC50 [6]: 1.67 µM
- Ki [6]: 1.67 µM
- Papp [8]: 31 ×10⁻⁶ cm/s
- Cmin, observed [9]: 12000 ng/mL
- EC50 [11]: 1.5 µM
- Ki [12]: 15.1 µM
- Ki [14]: 42 µM
- Ki [15]: 42 µM
Compound: CNC(=O)c1ccc(N2C(=S)N(c3ccc(C#N)c(C(F)(F)F)c3)C(=O)C2(C)C)cc1F [Enzalutamide]
- Vss ([7]; PBPK model parameter): 0.967 L/kg
- Estimated bioavailability based on mass balance data ([7]; oral): ≥ 84%
- fu [10]: 0.0244
- Log P [13]: 2.98

- Fold increase CYP1A2 mRNA [16]: 46.4 ± 7.2 fold
Compound: COc1ccc2[nH]c([S+]([O-])Cc3ncc(C)c(OC)c3C)nc2c1 (centres unmarked) [Omeprazole, omeprazole, reference compound]
- Fold increase P-gp mRNA [17]: 2.38 ± 1.68 fold
